Patent US6331555A, “Treatment of platelet derived growth factor related disorders such as cancers” (priority 1999, dated 2001)
Read-outs that look alike come from different tables or passages of the source.

Key:
[1] = tested on: C6 glioma cells; assay: C6 glioma SC xenograft in mice; format: in vivo
Experimental: Cell lines were grown in appropriate medium (see Appendix 1). Cells were harvested at or near confluency with 0.05% Trypsin-EDTA and pelleted at 450×g for 10 min. Pellets were resuspended in sterile PBS or media (without FBS) to a particular concentration and the cells were implanted into the hindflank of mice. Tumor growth was measured over 3 to 6 weeks using venier calipers. Tumor volumes were calculated as a product of length×width×height unless otherwise indicated. P values were calculated using the Students' t-test.
C6 and SKOV-3(T) cells were grown in culture, as described in "cell growth" above, and implanted into the hind flank of a female Balb/c nu/nu mouse at 3×10^6 cells (for C6 experiments), or 1×10^7 cells (for SKOV-3 experiments) in […] of PBS on Day 0. U87MG, U118MG or U373MG human glioblastoma cells (obtained from the ATCC), or A4312 were also implanted into athymic mice. […] Tumors were measured using venier calipers and tumor volume was calculated as a product of tumor length, width, and height.

[2] = Experimental: (§1) Plasma was prepared and frozen in liquid nitrogen. Tissues and organs were resected and immediately frozen in liquid nitrogen. After the addition of an internal standard, plasma samples were acidified with HCl and extracted with acetonitrile. The acetonitrile fraction was evaporated to dryness in a vacuum centrifuge with heating and redissolved in methanol. Tissue and organ samples were homogenized according to the weight ratio of 1:5 (w:v) in 50 mM Tris-HCl, pH 7.4, at 20,000 rev/min, using a tissue homogenizer (Brinkmann Polytron Model PT3000). After the addition of an internal standard, the homogenate was acidified with HCl and then extracted with acetonitrile. The acetonitrile fraction was then extracted with an equal volume of diethyl ether. The ether fraction was evaporated to dryness in a vacuum centrifuge with heating and redissolved in methanol.
(§2) Samples for HPLC analysis were injected onto a Hewlett Packard Hypersil 5-μm C18 cartridge column (100×4.6 mm). The mobile phase was methanol:35 mM KH2 PO4 (pH 4.5) 55:45 containing 4 mM triethylamine. The flow rate was 1.2 mL/min. The compounds were monitored by UV absorption at 254 nm using a Hewlett-Packard diode-array detector (HP Model 1090). Plasma and tissue concentrations were determined from standard curves using peak area for quantitation. […] The internal standard used was 5-methyl-pyrazole-4-carboxylic acid-(4-trifluoromethyl)-anilide.
(§3) Table XXII. […] Plasma and brain samples were prepared and analyzed by HPLC as described in Appendix 6. All results were calculated by the method of internal standardization. NT= not tested, ND= not detected.

[3] = tested on: NIH3T3 cells overexpressing the human PDGF-b receptor; assay: PDGF-stimulated cell cycle progression, flow cytometry; format: cell-based, mouse
Experimental: NIH3T3 mouse fibroblasts overexpressing the human PDGF-β receptor were seeded in DMEM supplemented with 10% CS and 2 mM GLN. Cells were grown to about 80% confluence and then treated overnight in serum-free medium (DMEM, 2 mM GLN, 2 mM NEAA, 2 mM NaPyr, and 2 mM HEPES). […] Cells were then collected, strained and analyzed by flow cytometry for DNA content.
The percentage of cells in the S phase of the cell cycle was determined by flow cytometry.
The cells were analyzed for DNA content by flow cytometry.

[4] = format: in vivo, mouse; conditions: IP A10 40 mg/kg single dose
Experimental: as §1
Samples for HPLC analysis were injected onto a Hewlett Packard Hypersil 5-μm C18 cartridge column (100×4.6 mm). […] The compounds were monitored by UV absorption at 254 nm using a Hewlett-Packard diode-array detector (HP Model 1090). Plasma and tissue concentrations were determined from standard curves using peak area for quantitation. […]
as §3

[5] = Solubility; conditions: water
Text: PBTE consists of a solution of 3% w/v benzyl alcohol, 8% w/v polysorbate 80, and 65% w/v polyethylene glycol (MW=300 daltons) in absolute ethanol. PBTE:D5W consists of PBTE diluted 1:1 in a solution of 5% dextrose in water. […] The solubility of the other compounds described herein can be obtained using standard techniques.

[6] = in vivo; parameters: species or system rat; conditions: IP A10 80 mg/kg single dose
Experimental: as §1, §2, §3

[7] = tested on: T98G cells; assay: PDGF-stimulated DNA synthesis, T98G cells (3H-thymidine); format: cell-based, human
Experimental: T98G cells in log phase growth were transferred to 96-well dishes at 20,000 cells in 200 μL of serum-containing growth medium. After an overnight attachment period, the monolayers were washed twice with 200 μL MCDB 105 medium and the cells were cultured in 200 μL serum-free MCDB 105 medium for 24 hr. […] The plates were incubated at 37° C. at ambient CO2 for approximately 18 hr. ^3 H-thymidine (Amersham, 5 Ci/mmol) was added to each well to yield a final concentration of 5 μCi/mL and the plates were returned to 37° C. incubator. After 4 hr the medium was removed, the plates were put onto ice, and washed twice with 200 μL ice-cold PBS per well. Radioactivity incorporated into DNA was separated from unincorporated ^3 H-thymidine by precipitation with 100 μL ice-cold TCA for 10 min on ice. […] Six mL of cocktail (Ready Safe, Beckman) was added and radioactivity quantified in a Beckman liquid scintillation counter model LS6000SC. […]
The effect on basal ^3 H-thymidine incorporation was determined in the absence of PDGF. […] Radioactivity incorporated into DNA was separated from unincorporated ^3 H-thymidine by precipitation with […] ice-cold TCA for 10 minutes. […] Six ml of cocktail (Ready Safe, Beckman) was added and radioactivity quantified in a Beckman liquid scintillation counter model LS6000 SC.

[8] = tested on: tumor cell lines; assay: In vitro growth assays, tumor cell lines; format: cell-based
Experimental: The assay measures protein content of acid-fixed cells using the counterion binding dye sulforhodamine B (SRB, Sigma). […] For other cell lines, the cells (2000 cells/well in 100 μL) were introduced into wells immediately after dispensing the drug solutions. After 4 days (37° C., 5% CO2) the monolayers were washed 3 times with PBS and fixed with 200 μL ice-cold 10% TCA (Fisher Scientific), and kept at 4° C. for 60 min. The TCA was removed and the fixed monolayers were washed 5 times with tap water and allowed to dry completely at room temperature on absorbent paper. The cellular protein was stained for 10 min with 100 μL 0.4% SRB dissolved in 1% acetic acid. After 5 washes with tap water, the dye was solubilized in 10 mM Tris base (100 μL per well) and absorbance read at 570 nm on a Dynatech plate reader model MR5000. Growth inhibition data are expressed as a percentage of absorbance detected in control wells which were treated with 0.4% DMSO alone. DMSO controls were not different from cells grown in regular growth medium. IC50 values were determined using a four parameter curve fit function.
For K562, DlB, L1210, 7TDl, T27A, and Colo320 DM cells, an MTT assay was used to assess cell growth. […] The absorbance was determined at 570 nm wavelength with a reference wavelength of 630 nm using an ELISA plate reader.

## CC(O)=C(C#N)C(=O)Nc1ccc(C(F)(F)F)cc1 [Compound B11, 2-cyano-3-hydroxy-N-[4-(trifluoromethyl)phenyl]-2-butenamide]
[1]; B11 15 mg/kg/day (DMSO) vs A10 15 mg/kg/day (DMSO)
  inhibition of tumor growth compared with A10: to the same extent
[1]; rat, in vivo
  potency compared to A10, growth of C6 tumors in vivo: equipotent in the inhibition of the growth of C6 tumors in vivo
[2]; 2 hr post-dose
  brain level, athymic mice compared to Wistar rats: 11 times
[2]; 4 hr post-dose
  brain level, athymic mice compared to Wistar rats: 6.5 times
[2]; A10 20 mg/kg
  % Increase, multiple vs single dose: 64%
[2]; A10 40 mg/kg
  % Increase, multiple vs single dose: 69%
[2]; IP A10 40 mg/kg single dose
  time detected in plasma: more than 48 hr
[2]; IP A10 […] mg/kg four weekly treatments, after last dose
  time detected in plasma: 48 h
[2]; IP A10 […] mg/kg single dose
  time detected in plasma: more than 48 hr
[3]
  potency compared to A10, PDGF-stimulated cell cycle progression: equipotent
[4]
  time detected in plasma: more than 48 hr
[5]
  solubility in water: not very soluble in water
[6]
  time detected in plasma: greater than 24 hr
[7]
  potency compared to A10, PDGF-stimulated DNA synthesis: equipotent in inhibiting PDGF-stimulated DNA synthesis
[8]
  potency compared to A10, in vitro growth assays: equipotent to A10
